Laboratory results taken from US20170216240A1, “METHODS FOR MODULATING IKS CHANNEL ACTIVITY” (UNIVERSITY OF MIAMI, priority 2014, published 2017).
Where “and” joins values, the source holds several entries; their conditions need not be identical. Equal values may be shown once. Read-outs that look alike come from different tables or passages of the source. Values belong to the molecule of their own block, whether it stands above or below them.

Tests used:
Kv7.1 = Kv7.1 (Homo sapiens, UniProt P51787); experiment: G(V) shift of Kv7.1 expressed in Xenopus laevis oocytes, two-electrode voltage-clamp; assay type: cell-based
Description: (§1) cDNAs encoding human Kv7.1 (GEnBAnk Acc. No. NM_000218) and KCNE1 (NM_000219) were subcloned into the expression vectors pGEM or pXOOM, containing the 5′- and 3′-untranslated regions for Xenopus laevis β-globin as well as a poly-A segment (Jespersen et al., Biotechniques 32, 536-538, 540 (2002)). The truncated KCNE1 construct KCNE1ΔC was constructed by introducing a Stop codon at position 67 using Quikchange site-directed mutagenesis kit (Qiagen). The construct was fully sequenced to ensure proper mutation and absence of unwanted mutations (sequencing by Genewiz). The concatemers E1-Kv7.1-Kv7.1 and E1-Kv7.1 were provided by Dr. R. S. Kass at Columbia University, and can be prepared as described in Chan et al. Journal of General Physiology 132(2), 135-144, (2012)). The E1-Kv7.1 construct was made by linking the C-terminus of KCNE1 to the N-terminus of KCNQ1. The E1-Kv7.1-Kv7.1 construct was made by digesting the E1-Kv7.1 and a Kv7.1-Kv7.1 dimer with Xho1 and inserting the 2-kb fragment from the Kv7.1-Kv7.1 dimer digest into the cut KCNE1-Kv7.1 construct. The DNA encoding E1-Kv7.1-Kv7.1 and E1-Kv7.1 were in the pGEM vector and contained mutations to make the constructs suitable for voltage-clamp fluorometry recordings (Wang et al., J Biol Chem 273, 34069-34074 (1998)). The original KCNE1 and Kv7.1 sequences were therefore removed, one at a time, from the pGEM vector using different restriction enzymes (New England Biolabs). Sequences were separated using gel electrophoresis and harvested using Qiagen gel extraction kit. Corresponding wild type sequences were ligated into the construct using T4 Ligase (New England Biolabs). To ensure correct sequence the constructs were sequenced (Genewiz) and tested with different restriction enzymes in combination with gel electrophoresis to measure length and conformation of the gene. cRNA for injection of all constructs was prepared from linearized DNA using the T7 mMessage mMachine transcription kit (Ambion) according to the manufactures instructions. RNA quality was checked by gel electrophoresis, and RNA concentrations were quantified by UV spectroscopy.
(§2) Xenopus laevis oocytes were isolated and maintained (Bentzen, B. H. et al. Neuropharmacology 51, 1068-1077 (2006)). Approximately 50 nl cRNA (50 ng Kv7.1, KCNE1-Kv7.1-Kv7.1 or KCNE1-Kv7.1 alternatively 25 ng Kv7.1 together with 8 ng KCNE1 or KCNE1ΔC) was injected into each oocyte using a Nanojet microinjector (Drummond). Electrophysiological experiments were made 2-5 days after injection. Currents were measured at room temperature with the two-electrode voltage-clamp technique (CA-1B Dagan amplifier). Currents were sampled at 1-3.3 kHz, filtered at 500 Hz, and not leakage corrected. […] A control solution containing (in mM): 88 NaCl, 1 KCl, 15 HEPES, 0.4 CaCl2, and 0.8 MgCl2 was used. NaOH was added to adjust pH to 7.4, yielding a final sodium concentration of about 100 mM. The holding voltage was generally set to −80 mV. Activation curves were generally elicited by stepping to test voltages between −110 and +60 mV (2-4 s durations and 10 mV increments) followed by a tail voltage of −30 mV. For recordings of Kv7.1 at pH 9 and pH 10, the holding voltage was set to more negative voltages because the largest DHA-induced shifts induced channel opening already at −80 mV. […] Therefore, in arachidonyl amine experiments a brief hyperpolarizing pulse of 50 ms to −120 mV was introduced between the test voltage and the tail voltage to relief the channels from inactivation.
(§3) Test compounds were dissolved in 99.5% ethanol to a concentration of 100 mM and stored at −20° C. (Börjesson et al., Biophys J 95, 2242-2253 (2008); Börjesson et al., Biophys J 98, 396-403 (2010)). Shortly before experiments, test compounds were diluted in control solution to the desired test concentration. Pure control solution was added to the bath using a gravity-driven perfusion system. […]

Kv7.1/KCNE1 = target: T1, Kv7.1/KCNE1 (Homo sapiens, UniProt P51787); experiment: G(V) shift of Kv7.1 co-expressed with KCNE1 in Xenopus oocytes, two-electrode voltage-clamp; assay type: cell-based; conditions: for pKa: human, Xenopus oocytes co-expressing human Kv7.1 and KCNE1, read-out: apparent pKa (pH of c0.5); for ΔV1/2 ± SEM (G(V) shift): Kv7.1/E1
T1 construct: expressed in transfected cells; host or cells: Xenopus laevis oocytes (cRNA co-injection)
Description: as §1, §2, §3

KCNE1-Kv7.1 = KCNE1-Kv7.1 (Homo sapiens, UniProt P15382+P51787); experiment: G(V) shift of KCNE1-Kv7.1 concatemer (4:4 stoichiometry) in Xenopus oocytes; assay type: cell-based; conditions: 70 μM; for ΔV1/2 ± SEM (G(V) shift): E1-Kv7.1
Description: (§4) As used herein, the terms “KCNE1-Kv7.1” and “KCNE1-Kv7.1-Kv7.1” refer to concatemers of Kv7.1 and KCNE1 in 4:4 and 4:2 stoichiometry, respectively.
as §1, with “The original KCNE1 and Kv7.1 sequences were therefore removed, one at a time, from the pGEM vector using different restriction enzymes (New England Biolabs). Sequences were separated using gel electrophoresis and harvested using Qiagen gel extraction kit. Corresponding wild type sequences were ligated into the construct using T4 Ligase (New England Biolabs). To ensure correct sequence the constructs were sequenced (Genewiz) and tested with different restriction enzymes in combination with gel electrophoresis to measure length and conformation of the gene. cRNA for injection of all constructs was prepared from linearized DNA using the T7 mMessage mMachine transcription kit (Ambion) according to the manufactures instructions.” left out
(§5) Xenopus laevis oocytes were isolated and maintained (Bentzen, B. H. et al. Neuropharmacology 51, 1068-1077 (2006)). […] Currents were measured at room temperature with the two-electrode voltage-clamp technique (CA-1B Dagan amplifier). […]
(§6) Xenopus laevis oocyte data were acquired using either Pulse software (HEKA) or Clampex 10.2 (Axon Instruments), and analyzed with Clampfit 10 (Axon Instruments) and GraphPad Prism 4 (GraphPad Software). […]

KCNE1-Kv7.1-Kv7.1 = KCNE1-Kv7.1-Kv7.1 (Homo sapiens, UniProt P15382+P51787); experiment: G(V) shift of KCNE1-Kv7.1-Kv7.1 concatemer (4:2 stoichiometry) in Xenopus oocytes; assay type: cell-based; conditions: 70 μM; for ΔV1/2 ± SEM (G(V) shift): E1-Kv7.1-Kv7.1
Description: as §4
as §1, with “The original KCNE1 and Kv7.1 sequences were therefore removed, one at a time, from the pGEM vector using different restriction enzymes (New England Biolabs). Sequences were separated using gel electrophoresis and harvested using Qiagen gel extraction kit. Corresponding wild type sequences were ligated into the construct using T4 Ligase (New England Biolabs). To ensure correct sequence the constructs were sequenced (Genewiz) and tested with different restriction enzymes in combination with gel electrophoresis to measure length and conformation of the gene. cRNA for injection of all constructs was prepared from linearized DNA using the T7 mMessage mMachine transcription kit (Ambion) according to the manufactures instructions.” left out
as §5, §6

intact guinea pig hearts = experiment: Restoration of QT interval in intact hearts with E4031-induced Long QT; conditions: E4031
Description: Long QT syndrome was induced in intact guinea pig hearts by administration of the drug E4031, a HERG channel blocker.

in vitro = conditions: human, Caco-2

Compound: CC(C)NCC(O)COc1cccc2ccccc12 (centres unmarked) [propranolol, reference compound]
permeability coefficient (Papp) (Caco-2 cells): 20×10^−6 cms^−1

Compound: CCCCC/C=C\C/C=C\C/C=C\C/C=C\CCCCN [AA+, arachidonyl amine]
Kv7.1 channel inactivation (Kv7.1; Kv7.1): induced Kv7.1 channel inactivation | ΔV1/2 ± SEM (G(V) shift) (Kv7.1; Kv7.1, 70 μM, pH 7.4): +9.7 ± 2.1 mV | ΔV1/2 ± SEM (G(V) shift) (Kv7.1; Kv7.1, 70 μM, pH 7.4, listed as Arachidonyl amine): +9.7±2.1 mV | ΔV1/2 ± SEM (G(V) shift) (Kv7.1; Kv7.1, 70 μM, pH 7.4, listed as arachidonyl amine): +9.7±2.1 mV | ΔV1/2 ± SEM (G(V) shift) (Kv7.1/KCNE1; 70 μM, pH 7.4): +22.6 ± 1.9 mV | ΔV1/2 ± SEM (G(V) shift) (Kv7.1/KCNE1; 70 μM, pH 7.4, listed as arachidonyl amine): +22.6±1.9 mV | G(V) shift of a representative cell (control curve shifted) (Kv7.1/KCNE1; Kv7.1/KCNE1, 70 μM, pH 7.4): +28 mV | G(V) shift (Kv7.1/KCNE1; Kv7.1/KCNE1, pH 7): about +25 mV

Compound: CCCCC/C=C\C/C=C\CCCCCCCC(=O)NCC(=O)O [Lin-Gly, linoleoyl-glycine]
Kv7.1 affinity (Kv7.1; compared among NAA, Lin-Gly, Ste-Gly, DHA-Gly, TTA, HTA): lowest affinity

Compound: CCCCCCCC/C=C\CCCCCCCC(=O)O [OA, oleic acid]
ΔV1/2 ± SEM (G(V) shift) (Kv7.1; Kv7.1, 70 μM, pH 7.4): −1.0±0.5 mV | ΔV1/2 ± SEM (G(V) shift) (Kv7.1; Kv7.1, 70 μM, pH 7.4, listed as Oleic acid): no effect

The next lines start with results.

maximal conductance (Kv7.1; Kv7.1): without affecting maximal conductance | G(V) shift (Kv7.1; Kv7.1, 7 μM): −3.0±0.5 mV | G(V) shift predicted from the concentration-response curve (Kv7.1; Kv7.1, 35 μM DHA alone): −6.5 mV | c0.5 (pH-dependence of the G(V) shift) (Kv7.1; Kv7.1, 70 μM): 1.8*10^−8 | ΔVmax (pH-dependence of the G(V) shift) (Kv7.1; Kv7.1, 70 μM): −30.7 mV | G(V) shift (Kv7.1; Kv7.1, 70 μM, pH 10): about −30 mV | G(V) shift (Kv7.1; Kv7.1, external pH 6.5): abolishes the DHA effect | estimated maximum shift ΔVmax (concentration dependence) (Kv7.1; Kv7.1, pH 7.4): −15.8±2.3 mV and −15.8 mV | EC50 (Kv7.1; Kv7.1, pH 7.4, read-out: c0.5, concentration causing 50% of the maximum shift): 50 ± 20 µM | ΔVmax (concentration-response) (Kv7.1; Kv7.1, pH 9.0): −27.7 mV | EC50 (Kv7.1; Kv7.1, pH 9.0, read-out: C0.5 (concentration-response)): 10 µM | pKa (Kv7.1; human, Xenopus laevis oocytes expressing human Kv7.1, Kv7.1, 70 μM, read-out: apparent pKa as reported by the shift of the G(V) relation): ~7.7 | c0.5 (pH-dependence of the G(V) shift) (Kv7.1/KCNE1; Kv7.1/KCNE1, 70 μM): 3.3*10^−9 | ΔVmax (pH-dependence of the G(V) shift) (Kv7.1/KCNE1; Kv7.1/KCNE1, 70 μM): −26.6 mV | G(V) shift of a representative cell (control curve shifted) (Kv7.1/KCNE1; Kv7.1/KCNE1, 70 μM, pH 9): −35 mV | pKa (Kv7.1/KCNE1; Kv7.1/KCNE1, 70 μM): 8.5 | G(V) shift of a representative cell (control curve shifted) (KCNE1-Kv7.1; KCNE1-Kv7.1): +5.5 mV | G(V) shift of a representative cell (control curve shifted) (KCNE1-Kv7.1-Kv7.1; KCNE1-Kv7.1-Kv7.1): +7 mV
Compound: CC/C=C\C/C=C\C/C=C\C/C=C\C/C=C\C/C=C\CCC(=O)O [DHA, 4,7,10,13,16,19-all-cis-docosahexaenoic acid]

apparent pKa lower than that of DHA (Kv7.1/KCNE1; Kv7.1/KCNE1): about 1.5 pH unit | pKa (Kv7.1/KCNE1; Kv7.1/KCNE1, 70 μM): 6.9 | efflux ratio (in vitro): 3.6
Compound: CC/C=C\C/C=C\C/C=C\C/C=C\C/C=C\C/C=C\CCC(=O)NCC(=O)O [DHA-Gly, docosahexaenoyl glycine]
concentration able to restore the QT intervals (intact guinea pig hearts): 10 µM

ΔV1/2 ± SEM (G(V) shift) (Kv7.1; Kv7.1, 70 μM, pH 7.4): +2.8 ± 2.5 mV | ΔV1/2 ± SEM (G(V) shift) (Kv7.1; Kv7.1, 70 μM, pH 7.4, listed as DHA methyl ester): no effect | ΔV1/2 ± SEM (G(V) shift) (Kv7.1; Kv7.1, 70 μM, pH 7.4, listed as DHA-Me): +2.8±2.5 mV | ΔV1/2 ± SEM (G(V) shift) (KCNE1-Kv7.1; pH 7.4): +5.0 ± 1.3 mV | ΔV1/2 ± SEM (G(V) shift) (KCNE1-Kv7.1; pH 9.0): +3.6 ± 2.6 mV | ΔV1/2 ± SEM (G(V) shift) (KCNE1-Kv7.1-Kv7.1; pH 7.4): +5.7 ± 0.9 mV | ΔV1/2 ± SEM (G(V) shift) (KCNE1-Kv7.1-Kv7.1; pH 9.0): +8.2 ± 2.7 mV
Compound: CC/C=C\C/C=C\C/C=C\C/C=C\C/C=C\C/C=C\CCC(=O)OC [DHA-me, 4,7,10,13,16,19-all-cis-docosahexaenoic acid methyl ester]
